Consider 26 compounds from patent publication US10870630B2, “Substituted bicyclic heteroaryl allosteric modulators of nicotinic acetylcholine receptors” (Merck Sharp & Dohme Corp., priority 2016, dated 2020).

Like-named read-outs stand apart in the source and are kept apart here.

This test deals with human α7 nicotinic acetylcholine receptor (α7 nAChR) (Homo sapiens, UniProt P36544). As to the kind of experiment: Automated patch-clamp electrophysiology functional assay (Assay A). It is filed as cell-based. The settings on record: HEK cell line stably expressing human RIC-3 and human α7, IonFlux HT whole-cell population patch, 40 μM acetylcholine. How it is done: The α7 nAChR positive allosteric modulator (PAM) activity of the present compounds may be tested using assays known in the art. The α7 nAChR PAMs described herein have activities in an automated patch-clamp electrophysiology functional assay as described in the examples. The assay was performed using the IonFlux HT in a whole-cell, population patch configuration. See Golden et al. Assay Drug Dev. Technol. (2011) 9:608-619. The compounds were assessed for their ability to modulate the function of the human […] nAChR stably expressed in a HEK cell line both in the presence, and in the absence of the natural 07 agonist acetylcholine. By performing a series of such measurements at different concentrations, the effective concentration of the α7 nAChR PAMs (EC50) was determined. See Spencer et al. Assay Drug Dev. Technol. (2012) 10:313-324.
human α7 nicotinic acetylcholine receptor (α7 nAChR), sequence (P36544 23-502): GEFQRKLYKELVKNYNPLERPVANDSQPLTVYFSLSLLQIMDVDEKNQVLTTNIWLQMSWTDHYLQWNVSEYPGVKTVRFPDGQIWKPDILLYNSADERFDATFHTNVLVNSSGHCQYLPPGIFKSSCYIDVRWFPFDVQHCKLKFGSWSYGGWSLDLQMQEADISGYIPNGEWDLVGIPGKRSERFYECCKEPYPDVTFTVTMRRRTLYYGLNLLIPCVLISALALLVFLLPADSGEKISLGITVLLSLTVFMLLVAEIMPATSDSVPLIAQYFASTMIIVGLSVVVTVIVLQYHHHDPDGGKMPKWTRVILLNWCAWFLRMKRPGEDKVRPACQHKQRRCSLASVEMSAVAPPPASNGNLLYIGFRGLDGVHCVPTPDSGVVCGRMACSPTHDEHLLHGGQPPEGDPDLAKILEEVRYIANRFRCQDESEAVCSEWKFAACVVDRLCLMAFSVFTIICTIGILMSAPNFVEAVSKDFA
Automated patch-clamp electrophysiology was performed using the IonFlux HT (Fluxion Biosciences Inc., San Francisco, Calif.) in the whole-cell, population patch configuration. Test compounds were assessed for their ability to modulate the function of the α7 nicotinic acetylcholine receptor both in the presence, and in the absence of the natural α7 agonist acetylcholine. A HEK cell line stably expressing both human RIC-3 and human α7 (PrecisION hnAChR α7/RIC-3, Eurofins Pharma, St. Charles, Mo.) was cultured in 175 cm^2 triple-layer tissue culture flasks to no more than 90% confluency in DMEM/F-12 growth media supplemented with 10% heat-inactivated fetal bovine serum, 1% non-essential amino acids, 0.625 μg/mL Puromycin, and 400 μg/mL Geneticin. Immediately prior to assay, cells were detached by first aspirating growth media, rinsing with Dulbecco's phosphate buffered saline, and then adding 10 mL of Accutase (Innovative Cell Technologies, San Diego, Calif.) to the flask and then incubating at 37° C. for 5 minutes. Detached cells were then recovered by the addition of 40 mL of CHO-serum-free media supplemented with 25 mM HEPES, and rocked gently in a 50 mL conical tube for 20 minutes prior to patch-clamp assay. After recovery, cells were pelleted by centrifugation at 1,000 RPM for 1 minute in a compact bench top centrifuge; recovery media was aspirated and cells were resuspended in external recording solution (150 mM NaCl, 5 mM KCl, 2 mM CaCl2, 1 mM MgCl2, 10 mM HEPES, 12 mM dextrose) to a density of 5.0×10^6 cells/mL. The cell suspension was added to the cell inlet wells on an IonFlux HT population patch plate which had previously been rinsed and primed with deionized H2O. Test compounds were serially diluted in DMSO and then resuspended to the final test concentration in external recording solution, with, or without 40 μM acetylcholine added to the external recording solution; test compounds were then transferred to the IonFlux HT population patch plate. Internal recording solution (110 mM TrisPO4, 28 mM TrisBase, 0.1 mM CaCl2, 2 mM MgCl2, 11 mM EGTA, 4 mM MgATP) was added to the internal recording solution inlet wells on the IonFlux HT patch plate previously loaded with cells and test compounds, and the plate loaded into the IonFlux HT instrument. A protocol was executed on the IonFlux HT to trap the cells, break into the cells, and establish the whole-cell recording configuration; cells were voltage-clamped at a holding potential of −60 mV for the duration of the experiment, all experiments were conducted at room temperature, and the IonFlux HT injection pressure was 8 psi for solution applications. Upon establishing the whole-cell configuration, external recording solution was perfused into the recording chambers for 120 seconds and then 40 μM acetylcholine was applied for 1 second and immediately washed off with external recording solution for 60 seconds. The 40 μM acetylcholine-evoked α7 current served as the current response to which subsequent test compound effects, in the presence, or in the absence of 40 μM acetylcholine would be quantified relative to. […]
(In patch-clamp work, channel activity is measured electrically.)

`NS(=O)(=O)c1ccc([C@H]2[C@H](c3nc4ccccc4o3)C2(F)F)cc1` [Example A7, 4-[(1R,3R)-3-(1,3-Benzoxazol-2-yl)-2,2-difluoro-cyclopropyl]benzenesulfonamide]: the EC50 runs as follows: (read-out: α7 nAChR EC50) 52 nM; (read-out: α7 nAChR Potency) at most 100 nM. On the same counts, the results for `CC1(C)[C@H](c2ccc(S(N)(=O)=O)cc2)[C@H]1c1nc2cccnc2o1` [Example 6, 4-[(1R,3R)-2,2-Dimethyl-3-([1,3]oxazolo[5,4-b]pyridin-2-yl)cyclopropyl]benzenesulfonamide] are 3400 nM and 500 to 5000 nM. Consider `NS(=O)(=O)c1ccc(C2CC2c2ccc3nccnc3c2)cc1` (racemic) [Example E4, 4-(2-Quinoxalin-6-ylcyclopropyl)benzenesulfonamide], for which the EC50 (read-out: α7 nAChR Potency) lay within 500 to 5000 nM. In the case of `CC1(C)[C@H](c2ccc(S(N)(=O)=O)cc2)[C@H]1c1ncc2ccccc2n1` [Example D1, 4-[(1R,3R)-2,2-Dimethyl-3-quinazolin-2-yl-cyclopropyl]benzenesulfonamide], the EC50 was 7200 nM (read-out: α7 nAChR EC50) and 5000 to 50000 nM (read-out: α7 nAChR Potency).

For the compound `CC1(C)[C@H](c2ccc(S(N)(=O)=O)cc2)[C@H]1c1nc2c(F)cc(F)cc2o1` [Example B1, 4-[(1R,3R)-3-(4,6-Difluoro-1,3-benzoxazol-2-yl)-2,2-dimethyl-cyclopropyl]benzenesulfonamide], the EC50 (read-out: α7 nAChR Potency) lay in the range of 100 to 500 nM.

Take `NS(=O)(=O)c1ccc(C2CC2c2cc3n(n2)CCCC3)cc1` (racemic) [Example E10, 4-[2-(4,5,6,7-Tetrahydropyrazolo[1,5-a]pyridin-2-yl)cyclopropyl]benzenesulfonamide]: where the note is “read-out: α7 nAChR Potency”, the EC50 fell in the range of 5000 to 50000 nM. Turning to `NS(=O)(=O)c1ccc([C@@H]2C[C@H]2c2ncc3ccccc3n2)cc1` [Example 3, 4-[(1R,2R)-2-(Quinazolin-2-yl)cyclopropyl]benzenesulfonamide], the EC50 was 370 nM (read-out: α7 nAChR EC50) and 100 to 500 nM (read-out: α7 nAChR Potency). On the same counts, the results for `CC1(C)[C@@H](c2ccc(S(N)(=O)=O)cc2)[C@@H]1c1nc2c(o1)CCCC2` [Example C3, 4-[(1S,3S)-2,2-Dimethyl-3-(4,5,6,7-tetrahydro-1,3-benzoxazol-2-yl)cyclopropyl]benzenesulfonamide] are 120 nM and 100 to 500 nM.

Regarding `NS(=O)(=O)c1ccc(C2CC2c2ccc3ccncc3n2)cc1` (racemic) [Example E8, 4-[2-(1,7-Naphthyridin-2-yl)cyclopropyl]benzenesulfonamide], the EC50 (read-out: α7 nAChR Potency) was 500 to 5000 nM. As to `Cc1nc2c(C3CC3c3ccc(S(N)(=O)=O)cc3)cccc2s1` (racemic) [Example E1, 4-[2-(2-Methyl-1,3-benzothiazol-4-yl)cyclopropyl]benzenesulfonamide], the EC50 was 410 nM (read-out: α7 nAChR EC50) and 100 to 500 nM (read-out: α7 nAChR Potency). `NS(=O)(=O)c1ccc([C@@H]2C[C@H]2c2nc3ccc(F)cc3o2)cc1` [Example A2, 4-[(1R,2R)-2-(6-Fluoro-1,3-benzoxazol-2-yl)cyclopropyl]benzenesulfonamide]: the EC50 was 60 nM (read-out: α7 nAChR EC50) and at most 100 nM (read-out: α7 nAChR Potency). For the compound `CC1(C)[C@@H](c2ccc(S(N)(=O)=O)cc2)[C@@H]1c1nc2c(F)cc(F)cc2s1` [Example A3, 4-[(1S,3S)-3-(4,6-Difluoro-1,3-benzothiazol-2-yl)-2,2-dimethyl-cyclopropyl]benzenesulfonamide], the EC50 (read-out: α7 nAChR EC50) was determined as 960 nM and the EC50 (read-out: α7 nAChR Potency) was in the range of 500 to 5000 nM. For `NS(=O)(=O)c1ccc(C2CC2c2cnn3ccccc23)cc1` (racemic) [Example E3, 4-(2-Pyrazolo[1,5-a]pyridin-3-ylcyclopropyl)benzenesulfonamide] the same measures were 3500 nM and 500 to 5000 nM. As for `NS(=O)(=O)c1ccc(C2CC2c2cnc3cc(Cl)cnc3c2)cc1` (racemic) [Example E2, 4-[2-(7-Chloro-1,5-naphthyridin-3-yl)cyclopropyl]benzenesulfonamide], under “read-out: α7 nAChR Potency”, the EC50 was 500 to 5000 nM.

Regarding `NS(=O)(=O)c1ccc([C@H]2[C@H](c3nc4c(o3)CCCC4)C2(F)F)cc1` [Example C4, 4-[(1R,3R)-2,2-Difluoro-3-(4,5,6,7-tetrahydro-1,3-benzoxazol-2-yl)cyclopropyl]benzenesulfonamide], for the setting “read-out: α7 nAChR Potency”, the EC50 lay within 500 to 5000 nM.

Consider `CC1(C)[C@@H](c2ccc(S(N)(=O)=O)cc2)[C@@H]1c1nc2ccc(F)cc2s1` [Example 10, 4-((1S,3S)-3-(6-Fluorobenzo[d]thiazol-2-yl)-2,2-dimethylcyclopropyl)benzenesulfonamide], for which the EC50 was 450 nM (read-out: α7 nAChR EC50) and 100 to 500 nM (read-out: α7 nAChR Potency).

On to `CC1(C)[C@H](c2ccc(S(N)(=O)=O)cc2)[C@H]1c1nc2ccc(F)cc2o1` [Example B2, 4-[(1R,3R)-3-(6-Fluoro-1,3-benzoxazol-2-yl)-2,2-dimethyl-cyclopropyl]benzenesulfonamide], for which the EC50 is 300 nM (read-out: α7 nAChR EC50) and 100 to 500 nM (read-out: α7 nAChR Potency).

As for `CC1(C)[C@@H](c2ccc(S(N)(=O)=O)cc2)[C@@H]1c1nc2ccccc2o1` [Example A4, 4-[(1S,3S)-3-(1,3-Benzoxazol-2-yl)-2,2-dimethyl-cyclopropyl]benzenesulfonamide], the EC50 was 280 nM (read-out: α7 nAChR EC50) and 100 to 500 nM (read-out: α7 nAChR Potency).

With `CC1(C)[C@H](c2ccc(S(N)(=O)=O)cc2)[C@H]1c1nc2ccc(F)cc2s1` [Example B9, 4-[(1R,3R)-3-(6-Fluoro-1,3-benzothiazol-2-yl)-2,2-dimethyl-cyclopropyl]benzenesulfonamide], the EC50 is, setting by setting: (read-out: α7 nAChR EC50) 170 nM; (read-out: α7 nAChR Potency) 100 to 500 nM. For `NS(=O)(=O)c1ccc([C@H]2C[C@@H]2c2nc3ccccc3o2)cc1` [Example B4, 4-[(1S,2S)-2-(1,3-Benzoxazol-2-yl)cyclopropyl]benzenesulfonamide], under “read-out: α7 nAChR Potency”, the EC50 lay in the range of 500 to 5000 nM. For the compound `CC1(C)[C@H](c2ccc(S(N)(=O)=O)cc2)[C@H]1c1nc2c(o1)CCCC2` [Example D3, 4-[(1R,3R)-2,2-Dimethyl-3-(4,5,6,7-tetrahydro-1,3-benzoxazol-2-yl)cyclopropyl]benzenesulfonamide], the EC50 (read-out: α7 nAChR Potency) fell in the range of 500 to 5000 nM. Consider `NS(=O)(=O)c1ccc([C@@H]2C[C@H]2c2nc3c(o2)CCCC3)cc1` [Example 4, 4-[(1R,2R)-2-(4,5,6,7-Tetrahydro-1,3-benzoxazol-2-yl)cyclopropyl]benzenesulfonamide], for which the EC50 is 610 nM (read-out: α7 nAChR EC50) and 500 to 5000 nM (read-out: α7 nAChR Potency). Turning to `NS(=O)(=O)c1ccc([C@@H]2C[C@H]2c2cnc3ccccc3n2)cc1` (relative stereo) [Example 7, 4-[trans-2-(Quinoxalin-2-yl)cyclopropyl]benzenesulfonamide], the EC50 by setting is: (read-out: α7 nAChR EC50) 1300 nM; (read-out: α7 nAChR Potency) 500 to 5000 nM. For `CC1(C)[C@H](c2ccc(S(N)(=O)=O)cc2)[C@H]1c1nc2ccncc2o1` [Example D2, 4-[(1R,3R)-2,2-Dimethyl-3-oxazolo[5,4-c]pyridin-2-yl-cyclopropyl]benzenesulfonamide] the same measures were 3400 nM and 500 to 5000 nM. Take `NS(=O)(=O)c1ccc([C@@H]2[C@@H](c3nc4ccccc4s3)C2(F)F)cc1` [Example B12, 4-[(1S,3R)-3-(1,3-Benzothiazol-2-yl)-2,2-difluoro-cyclopropyl]benzenesulfonamide]: the EC50 (read-out: α7 nAChR Potency) is 100 to 500 nM.

Regarding `CC1(C)[C@@H](c2ccc(S(N)(=O)=O)cc2)[C@@H]1c1ncc2ccccc2n1` [Example C1, 4-[(1S,3S)-2,2-Dimethyl-3-quinazolin-2-yl-cyclopropyl]benzenesulfonamide], the EC50 was 1400 nM (read-out: α7 nAChR EC50) and 500 to 5000 nM (read-out: α7 nAChR Potency).
